Like-named read-outs stand apart in the source and are kept apart here.
Assays:
[1] = system: SARS-CoV-2; test: Authentic virus inhibition assay, SARS-CoV-2 wild-type strain in Vero-E6 cells; format: cell-based; details: Severe acute respiratory syndrome coronavirus 2, Vero C1008
[2] = target: Human TMPRSS2 (Homo sapiens, UniProt O15393); test: Protease panel, TMPRSS2 inhibition; format: biochemical; details: at a concentration of 10 μM; for inhibition at 10 µM: read-out: Inhibition rate, Human TMPRSS2
Method: Enzymatic activity and inhibition assays of both compounds against the remaining proteases in Supplementary Table S2 were measured by a commercial company.

[3] = target: SARS-CoV-2 M^pro (Severe acute respiratory syndrome coronavirus 2, UniProt P0DTD1); test: biochemical
[4] = system: SARS-CoV-2 PsV; test: microbe, parasite or virus in culture; format: cell-based; details: Severe acute respiratory syndrome coronavirus 2, 293T/ACE2, read-out: EC50, SARS-CoV-2 PsV
[5] = system: Huh-7, Vero-E6, RD and 293T-ACE2-TMPRSS2 cell lines; test: Cell Counting Kit-8 (CCK8) cytotoxicity assay; format: cell-based; details: 293T-ACE2-TMPRSS2 cells
Method: Cell viability was performed in a 96-well plate with triplicate for each concentration. All compounds were diluted two times with nine gradients starting at 200, 250. or 500 micromoles in maintenance medium. After 48 h incubation, the supernatant was removed, and 10 μL WST-8 (2-(2-methoxy-4-nitrophenyl)-3-(4-nitrophenyl)-5-(2,4-disulfophenyl)-2H-tetrazolium sodium salt) in maintenance medium was added to the cells. After incubation at 37 °C for 2 h, the plates were measured at 450 nm using a spectrophotometer (BioTek), and cell viability was calculated. All compounds were diluted with maintenance medium containing 2%FBS of DMEM.

[6] = target: Human Caspase 3 (Homo sapiens, UniProt P42574); test: Protease panel, caspase 3 inhibition; format: biochemical; details: at a concentration of 20 μM; read-out: Inhibition rate, Human Caspase 3
[7] = system: vesicular stomatitis virus G glycoprotein (VSV-G) mediated entry; format: cell-based
[8] = system: B.1.617.2 (Delta); test: microbe, parasite or virus in culture; format: cell-based; details: Severe acute respiratory syndrome coronavirus 2, Vero C1008, read-out: EC50, SARS-CoV-2 B.1.617.2 (Delta)
[9] = system: LPS-induced expression of proinflammatory cytokines (IL-1β, IL-6) and chemokines (CCL3, CXCL10) in Raw 264.7 mouse macrophages; test: Anti-inflammatory assay in LPS-stimulated Raw 264.7 cells (RT-qPCR); format: cell-based; details: LPS 200 ng/mL 6 h, dose-dependent
Method: Mouse macrophage Raw 264.7 cells were incubated with compounds 14a or 14b at different doses for 2 h. Then, the cells were stimulated with LPS (200 ng/mL) for 6 h, followed by RT-qPCR analysis.
RNA isolation, cDNA synthesis, and RT-qPCR. Total RNA was isolated from cells using RNA extraction reagent (Vazyme, R401-01). cDNA was synthesized using the HiScript IIQ RT SuperMix (Vazyme, R223-01), according to manufacturer’s instructions. RT-qPCR was performed using ChamQ SYBR qPCR Master Mix (Vazyme, Q331-02) in a CFX96TM Real-Time PCR Detection System (Bio-Rad, Shanghai, China). The profile of thermal cycling consisted of initial denaturation at 95 °C for 30 s, 40 cycles at 95 °C for 5 s and 60 °C for 30 s. All primer sequences used in this study are listed in Supplementary Table S5.

[10] = target: Human CTSG (Homo sapiens, UniProt P08311); test: Protease panel, CTSG inhibition; format: biochemical; details: at a concentration of 20 μM; read-out: Inhibition rate, Human CTSG
[11] = target: Human CTSD (Homo sapiens, UniProt P07339); test: Protease panel, CTSD inhibition; format: biochemical; details: at a concentration of 20 μM; read-out: Inhibition rate, Human CTSD
[12] = target: Human CTSL (Homo sapiens, UniProt P07711); test: FRET-based cleavage assay, enzymatic inhibition of human CTSL
[13] = Pharmacokinetics in rats; format: in vivo; details: for AUC(0-t) / Cmax / Tmax / bioavailability / half-life / AUC(0-inf) / MRT inf / clearance: male, SD, rat, plasma; for AUC(0-inf): read-out: AUCINF_obs; for MRT inf: read-out: MRTINF_obs
[14] = system: C57BL/6 mice; test: In vivo acute toxicity study in mice; details: oral, 1000 mg/kg/day and 2000 mg/kg/day; for Acute toxicity study, organs and tissues damage: at the end of observation; for Acute toxicity study, overall result: twice daily, observed 12 days
Method: C57BL/6 mice (aged 6–8 weeks, 16–25 g) consisting of half male and half female were used to assess toxicity of compounds 14a and 14b in vivo. Compounds, vehicle, dosage, and administration schemes are shown in Supplementary Table S6. In short, mice were treated with compounds 14a and 14b at the indicated doses by oral gavage and the mice were clinically observed for 12 days after administration, including body weights, food consumption, and general status. At the end of the studies, the mice were anesthetized by Zoletil 50, and the organ and tissue samples were observed by naked eyes.

[15] = target: Human CTSB (Homo sapiens, UniProt P07858); test: biochemical
[16] = target: Human Chymotrypsin C (Homo sapiens, UniProt Q99895); test: Protease panel, chymotrypsin C inhibition; format: biochemical; details: at a concentration of 20 μM; read-out: Inhibition rate, Human Chymotrypsin C
[17] = target: Human Furin (Homo sapiens, UniProt P09958); test: Protease panel, furin inhibition; format: biochemical; details: at a concentration of 20 μM; for inhibition: read-out: Inhibition rate, Human Furin
[18] = system: B.1.617.2 (Delta); test: microbe, parasite or virus in culture; format: cell-based; details: Severe acute respiratory syndrome coronavirus 2, HEK-293T, read-out: EC50, SARS-CoV-2 B.1.617.2 (Delta)

Chain of Human Furin (P09958 108-794): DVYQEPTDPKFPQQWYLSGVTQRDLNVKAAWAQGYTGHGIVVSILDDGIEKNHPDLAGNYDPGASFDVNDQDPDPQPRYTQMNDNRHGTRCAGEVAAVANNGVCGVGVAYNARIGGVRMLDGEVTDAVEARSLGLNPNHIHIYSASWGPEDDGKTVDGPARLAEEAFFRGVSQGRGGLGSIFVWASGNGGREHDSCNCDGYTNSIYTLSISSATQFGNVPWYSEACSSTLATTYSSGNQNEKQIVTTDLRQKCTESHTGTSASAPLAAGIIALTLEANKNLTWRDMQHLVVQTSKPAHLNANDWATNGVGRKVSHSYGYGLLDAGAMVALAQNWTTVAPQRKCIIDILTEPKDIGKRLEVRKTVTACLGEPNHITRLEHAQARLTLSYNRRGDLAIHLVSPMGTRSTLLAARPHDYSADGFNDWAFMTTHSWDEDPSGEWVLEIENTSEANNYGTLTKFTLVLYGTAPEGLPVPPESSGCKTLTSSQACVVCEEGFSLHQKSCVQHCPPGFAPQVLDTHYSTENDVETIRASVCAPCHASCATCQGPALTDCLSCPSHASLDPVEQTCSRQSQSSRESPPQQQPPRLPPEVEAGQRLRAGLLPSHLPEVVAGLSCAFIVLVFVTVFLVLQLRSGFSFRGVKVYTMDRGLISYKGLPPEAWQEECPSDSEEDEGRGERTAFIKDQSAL
Chain of Human TMPRSS2 (O15393 whole entry): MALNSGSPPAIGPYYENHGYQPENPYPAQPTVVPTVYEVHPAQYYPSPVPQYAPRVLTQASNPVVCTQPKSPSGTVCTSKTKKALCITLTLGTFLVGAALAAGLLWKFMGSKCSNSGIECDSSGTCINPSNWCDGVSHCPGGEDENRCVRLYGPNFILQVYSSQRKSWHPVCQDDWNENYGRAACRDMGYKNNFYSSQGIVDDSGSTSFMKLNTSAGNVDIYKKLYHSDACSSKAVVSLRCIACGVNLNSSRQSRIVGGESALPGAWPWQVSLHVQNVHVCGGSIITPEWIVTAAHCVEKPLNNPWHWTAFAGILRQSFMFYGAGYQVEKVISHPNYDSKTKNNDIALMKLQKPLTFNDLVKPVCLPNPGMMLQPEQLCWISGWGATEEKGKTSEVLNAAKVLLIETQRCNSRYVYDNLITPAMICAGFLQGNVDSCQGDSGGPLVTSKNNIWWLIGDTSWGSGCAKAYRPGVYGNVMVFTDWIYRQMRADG
Chain of Human CTSD (P07339 65-412): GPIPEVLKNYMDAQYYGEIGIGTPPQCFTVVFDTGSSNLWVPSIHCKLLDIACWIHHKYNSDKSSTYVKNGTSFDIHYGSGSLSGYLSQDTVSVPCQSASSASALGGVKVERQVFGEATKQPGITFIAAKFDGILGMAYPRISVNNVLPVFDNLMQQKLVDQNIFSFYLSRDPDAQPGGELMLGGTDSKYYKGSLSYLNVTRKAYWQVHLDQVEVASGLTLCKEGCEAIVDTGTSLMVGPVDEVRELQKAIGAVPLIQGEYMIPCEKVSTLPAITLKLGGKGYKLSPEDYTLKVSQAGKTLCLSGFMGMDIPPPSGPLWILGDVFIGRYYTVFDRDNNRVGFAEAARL
Chain of Human Caspase 3 (P42574 29-175 limits assumed): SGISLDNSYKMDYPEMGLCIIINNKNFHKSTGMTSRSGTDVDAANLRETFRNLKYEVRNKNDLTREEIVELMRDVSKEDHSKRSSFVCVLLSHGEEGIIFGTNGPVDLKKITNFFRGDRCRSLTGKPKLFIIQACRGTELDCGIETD
Chain of Human Caspase 3 (P42574 176-277 limits assumed): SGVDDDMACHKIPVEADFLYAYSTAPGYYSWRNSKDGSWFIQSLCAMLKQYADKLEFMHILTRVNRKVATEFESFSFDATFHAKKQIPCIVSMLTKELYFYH
Chain of Human CTSL (P07711 114-333): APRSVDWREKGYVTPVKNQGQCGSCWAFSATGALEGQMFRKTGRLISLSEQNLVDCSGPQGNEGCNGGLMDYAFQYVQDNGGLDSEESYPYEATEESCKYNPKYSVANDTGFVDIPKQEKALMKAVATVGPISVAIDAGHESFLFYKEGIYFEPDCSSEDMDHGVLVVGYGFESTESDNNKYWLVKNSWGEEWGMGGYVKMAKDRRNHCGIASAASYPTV
Chain of Human CTSG (P08311 21-255): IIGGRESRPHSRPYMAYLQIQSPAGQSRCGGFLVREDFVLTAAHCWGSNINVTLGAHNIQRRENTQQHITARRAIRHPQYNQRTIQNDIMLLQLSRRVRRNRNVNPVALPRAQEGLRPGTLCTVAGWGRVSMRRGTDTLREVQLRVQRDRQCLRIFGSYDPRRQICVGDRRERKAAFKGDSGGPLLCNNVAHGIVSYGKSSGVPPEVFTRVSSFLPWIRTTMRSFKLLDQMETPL
Chain of Human Chymotrypsin C (Q99895 30-268): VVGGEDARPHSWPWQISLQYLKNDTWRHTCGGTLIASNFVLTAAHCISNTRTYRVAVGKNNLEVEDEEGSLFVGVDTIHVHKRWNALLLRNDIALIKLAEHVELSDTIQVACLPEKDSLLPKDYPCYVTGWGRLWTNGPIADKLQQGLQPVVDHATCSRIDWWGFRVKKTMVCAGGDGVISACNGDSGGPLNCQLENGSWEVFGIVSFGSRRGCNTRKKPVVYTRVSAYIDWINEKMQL

SMILES: O=C(NCc1ccccc1)C(=O)[C@H](C[C@@H]1CCCNC1=O)NC(=O)[C@H](Cc1ccc(F)cc1)NC(=O)c1cc2ccccc2o1 [14a, N-((S)-1-(((S)-4-(benzylamino)-3,4-dioxo-1-((S)-2-oxopiperidin-3-yl)butan-2-yl)amino)-3-(4-fluorophenyl)-1-oxopropan-2-yl)benzofuran-2-carboxamide]
- EC50 [1]: 51.7 ± 10.8 nM
- Inhibitory activity against TMPRSS2 (in words) [2]: did not exhibit inhibitory activity
- inhibition at 10 µM [2]: -1 ± 1%
- IC50 [3]: 12600 nM
- EC50 [4]: 3.33 ± 1.9 nM
- Cytotoxicity [5]: very low or no cytotoxicity
- inhibition [6]: 25 ± 2%
- Inhibitory activity on VSV-G mediated entry [7]: no inhibitory activity
- EC50 [8]: 11 ± 1.8 nM
- LPS-induced expression of proinflammatory cytokines (IL-1β, IL-6) and chemokines (CCL3, CXCL10) [9]: significantly inhibited
- inhibition [10]: 20 ± 3%
- inhibition [11]: 21 ± 1%
- IC50 [12]: 3.34 ± 0.52 nM
- Vss_obs ([13]; i.v. (5 mg/kg)): 1.3 ± 0.15 L/kg
- AUC(0-t) ([13]; ip, i.p. (5 mg/kg)): 4760 ng·h/mL
- Cmax ([13]; ip, i.p. (5 mg/kg)): 2080 ng/mL
- Tmax ([13]; ip, i.p. (5 mg/kg)): 0.25 h
- bioavailability ([13]; ip, i.p. (5 mg/kg)): 115%
- half-life ([13]; ip, i.p. (5 mg/kg)): 4.14 h
- AUC(0-inf) ([13]; ip, i.p. (5 mg/kg)): 4760 ng·h/mL
- MRT inf ([13]; ip, i.p. (5 mg/kg)): 1.9 h
- AUC(0-t) ([13]; iv, i.v. (5 mg/kg)): 4110 ± 756 ng·h/mL
- clearance ([13]; iv, i.v. (5 mg/kg)): 20.6 ± 3.4 mL/min/kg
- half-life ([13]; iv, i.v. (5 mg/kg)): 6 ± 0.75 h
- AUC(0-inf) ([13]; iv, i.v. (5 mg/kg)): 4130 ± 756 ng·h/mL
- MRT inf ([13]; iv, i.v. (5 mg/kg)): 1.08 ± 0.07 h
- AUC(0-t) ([13]; po, p.o. (10 mg/kg)): 1050 ± 276 ng·h/mL
- Cmax ([13]; po, p.o. (10 mg/kg)): 416 ng/mL
- Tmax ([13]; po, p.o. (10 mg/kg)): 0.75 ± 0.84 h
- bioavailability ([13]; po, p.o. (10 mg/kg)): 13%
- half-life ([13]; po, p.o. (10 mg/kg)): 2.52 h
- AUC(0-inf) ([13]; po, p.o. (10 mg/kg)): 1060 ng·h/mL
- MRT inf ([13]; po, p.o. (10 mg/kg)): 2.06 ± 0.49 h
- Acute toxicity study, abnormalities in body weights, food mean daily consumption and general status [14]: No abnormalities
- Acute toxicity study, mortality [14]: No mice died
- Acute toxicity study, organs and tissues damage [14]: No obvious organs and tissues damage
- Acute toxicity study, overall result [14]: No obvious toxicity
- IC50 [15]: 1.23 nM
- inhibition [16]: -2 ± 1%
- Inhibitory activity against furin (in words) [17]: did not exhibit inhibitory activity
- inhibition [17]: 3 ± 4%
- EC50 [18]: 0.8 ± 0.16 nM

SMILES: O=C(NCc1ccccc1)C(=O)[C@H](C[C@@H]1CCCNC1=O)NC(=O)[C@H](CC1CCCCC1)NC(=O)c1cc2ccccc2o1 [14b, N-((S)-1-(((S)-4-(benzylamino)-3,4-dioxo-1-((S)-2-oxopiperidin-3-yl)butan-2-yl)amino)-3-cyclohexyl-1-oxopropan-2-yl)benzofuran-2-carboxamide]
- EC50 [1]: < 40 nM
- Inhibitory activity against TMPRSS2 (in words) [2]: did not exhibit inhibitory activity
- inhibition at 10 µM [2]: 3 ± 1%
- IC50 [3]: 990 nM
- EC50 [4]: 0.61 ± 0.06 nM
- Cytotoxicity [5]: very low or no cytotoxicity
- inhibition [6]: 39 ± 2%
- Inhibitory activity on VSV-G mediated entry [7]: no inhibitory activity
- EC50 [8]: 28.6 ± 3.79 nM
- LPS-induced expression of proinflammatory cytokines (IL-1β, IL-6) and chemokines (CCL3, CXCL10) [9]: significantly inhibited
- inhibition [10]: 4 ± 4%
- inhibition [11]: 29 ± 2%
- IC50 [12]: 6.88 ± 0.81 nM
- Vss_obs ([13]; i.v. (5 mg/kg)): 2.28 ± 0.184 L/kg
- AUC(0-t) ([13]; ip, i.p. (5 mg/kg)): 9300 ± 994 ng·h/mL
- Cmax ([13]; ip, i.p. (5 mg/kg)): 1630 ± 99 ng/mL
- Tmax ([13]; ip, i.p. (5 mg/kg)): 0.25 h
- bioavailability ([13]; ip, i.p. (5 mg/kg)): 249%
- half-life ([13]; ip, i.p. (5 mg/kg)): 8.24 ± 1.72 h
- AUC(0-inf) ([13]; ip, i.p. (5 mg/kg)): 10600 ± 557 ng·h/mL
- MRT inf ([13]; ip, i.p. (5 mg/kg)): 10.6 ± 1.8 h
- AUC(0-t) ([13]; iv, i.v. (5 mg/kg)): 4220 ± 189 ng·h/mL
- clearance ([13]; iv, i.v. (5 mg/kg)): 19.6 ± 0.9 mL/min/kg
- half-life ([13]; iv, i.v. (5 mg/kg)): 5.11 ± 0.1 h
- AUC(0-inf) ([13]; iv, i.v. (5 mg/kg)): 4250 ± 188 ng·h/mL
- MRT inf ([13]; iv, i.v. (5 mg/kg)): 1.94 ± 0.12 h
- AUC(0-t) ([13]; po, p.o. (10 mg/kg)): 2620 ± 250 ng·h/mL
- Cmax ([13]; po, p.o. (10 mg/kg)): 982 ng/mL
- Tmax ([13]; po, p.o. (10 mg/kg)): 0.33 ± 0.14 h
- bioavailability ([13]; po, p.o. (10 mg/kg)): 32%
- half-life ([13]; po, p.o. (10 mg/kg)): 3.86 h
- AUC(0-inf) ([13]; po, p.o. (10 mg/kg)): 2680 ng·h/mL
- MRT inf ([13]; po, p.o. (10 mg/kg)): 3.95 ± 1.27 h
- Acute toxicity study, abnormalities in body weights, food mean daily consumption and general status [14]: No abnormalities
- Acute toxicity study, mortality [14]: No mice died
- Acute toxicity study, organs and tissues damage [14]: No obvious organs and tissues damage
- Acute toxicity study, overall result [14]: No obvious toxicity
- IC50 [15]: 1.01 nM
- inhibition [16]: 8 ± 4%
- Inhibitory activity against furin (in words) [17]: did not exhibit inhibitory activity
- inhibition [17]: -4 ± 1%
- EC50 [18]: 0.84 ± 0.13 nM

From publication PMC10914734 (Signal Transduction and Targeted Therapy, 2024)
